pKi: −log10 of the molar value. *1 amine or outer side, *2 acyl side, *3 side chain or, on linkers, in order; H or OH if unused. Where a SMILES comes first, the peptide text is derived from it. [ ]: non-standard residue; d: D form. The star is where a group is joined. Pro(3R,4S-CMe2) = CC1(C)[C@@H]2[C@@H](C(=O)O)NC[C@@H]21; Abu(4,4-F2) = N[C@@H](CC(F)F)C(=O)O; Phg = N[C@H](C(=O)O)c1ccccc1; Tle = CC(C)(C)[C@H](N)C(=O)O; Boc = CC(C)(C)OC(=O)*; CO = O=C([*:1])[*:2]; NHtBu = CC(C)(C)N*; βAla = NCCC(=O)O

T1 sequence (P26663 1013-1207, looked up, natural form): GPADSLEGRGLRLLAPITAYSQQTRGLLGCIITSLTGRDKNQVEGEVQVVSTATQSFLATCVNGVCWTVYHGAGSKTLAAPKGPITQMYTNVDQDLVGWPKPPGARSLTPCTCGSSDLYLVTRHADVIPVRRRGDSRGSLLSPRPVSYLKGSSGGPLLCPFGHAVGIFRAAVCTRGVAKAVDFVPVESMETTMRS

One assay has as its target T1, HCV NS3/NS4a serine protease (Hepatitis C virus genotype 1b, UniProt P26663).
T1 construct: amino terminus of the NS3 protease domain (amino acids 3-181) with a tetrapeptide linker; made in house; host or cells: E. coli
As to the kind of experiment: Spectrophotometric assay for HCV protease inhibitory activity (chromogenic ester substrates). In kind it is biochemical, hepatitis C virus (strain 1b). As to conditions: Ki Rating, Table 2; single chain NS4A21-32-GSGS-NS3 3-181 protease, 30° C., pH 6.5. As for the experimental part: Spectrophotometric Assay: Spectrophotometric assays for the HCV serine protease were performed on the inventive compounds by following the procedure described by R. Zhang et al., Analytical Biochemistry, 270 (1999) 268-275, the disclosure of which is incorporated herein by reference. The assay based on the proteolysis of chromogenic ester substrates is suitable for the continuous monitoring of HCV NS3 protease activity.
HCV NS3 protease (strain 1b) and its NS4A cofactor were constructed as a recombinant single chain protein. The NS4A cofactor domain (amino acid residues 21-32) was fused in frame to the amino terminus of the NS3 protease domain (amino acids 3-181) with a tetrapeptide linker. This NS4A 21-32-GSGS-NS33-181 construct was then expressed in E. coli and purified to >90% homogeneity. Kinetic parameters were determined and found to be the same as that of the full length NS31-631/NS4A1-54 protein complex produced in the baculovirus system (D. L. Sali et al, Biochemistry, 37 (1998) 3392-340). The details of the cloning, expression, purification and kinetic analysis of the of the single chain recombinant protease have been previously described (S. S. Taremi, et al. Protein Science. 7 (1998) 2143-2149.
Protein concentrations were determined by the Biorad dye method using recombinant HCV protease standards previously quantified by amino acid analysis. Prior to assay initiation, the enzyme storage buffer (50 mM sodium phosphate pH 8.0, 300 mM NaCl, 10% glycerol, 0.05% lauryl maltoside and 10 mM DTT) was exchanged for the assay buffer (25 mM MOPS pH 6.5, 300 mM NaCl, 10% glycerol, 0.05% lauryl maltoside, 5 μM EDTA and 5 μM DTT) utilizing a Biorad Bio-Spin P-6 prepacked column.
Protease Assay: HCV protease assays were performed at 30° C. using a 200 μl reaction mix in a 96-well microtiter plate. Assay buffer conditions (25 mM MOPS pH 6.5, 300 mM NaCl, 10% glycerol, 0.05% lauryl maltoside, 5 μM EDTA and 5 μM DTT) were optimized for the NS3/NS4A heterodimer (D. L. Sali et al, ibid.)). Typically, 100 μl mixtures of buffer, substrate and inhibitor were placed in wells and allowed to preincubate at 30° C. for approximately 3 minutes. One hundred μls of pre-warmed protease (30° C.) in assay buffer, was then used to initiate the reaction to produce a final concentration of 1.3 nM HCV). The Substrate cleavage by the protease was monitored over 60 minutes by measuring the release of the phenylazophenol (PAP) product at an absorbance of 370 nm with a continuous read every 30 seconds using a SpectraMax Plus microtiter plate reader (Molecular Devices, Sunnyvale, Calif.). Background hydrolysis of the substrate was subtracted. Inhibitors were tested over a range of concentrations (final DMSO concentration 4%)
Evaluation of Inhibitors The inhibition constants (Ki) for the competitive inhibitors were determined experimentally at fixed concentrations of enzyme and substrate by plotting vo/vi vs. inhibitor concentration ([I]o) according to the rearranged Michaelis-Menten equation for competitive inhibition kinetics: vo/vi=1+[I]o/(Ki(1+[S]o/Km)), where vo is the uninhibited initial velocity, vi is the initial velocity in the presence of inhibitor at any given inhibitor concentration ([I]o) and [S]o is the substrate concentration used. The resulting data were fitted using linear regression and the resulting slope, 1/(Ki(1+[S]o/Km), was used to calculate the Ki value.
Consider `COC(=O)c1ccc(CCNC(=O)C(CC(F)F)NC(=O)[C@@H]2[C@@H]3[C@H](CN2C(=O)[C@@H](NC(=O)N[C@H](C(=O)OC(C)(C)C)C(C)C)C(C)(C)C)C3(C)C)cc1` (stereo partly drawn) [Example 138], for which the pKi was 6.30 to 7.00.
Still for that read-out and setting: the value for `COC(=O)c1ccc(CCNC(=O)[C@H](CC(F)F)NC(=O)[C@@H]2[C@@H]3[C@H](CN2C(=O)[C@@H](NC(=O)N[C@H](C(=O)OC(C)(C)C)C(C)(C)C)C(C)(C)C)C3(C)C)cc1` [Example 139] was 6.30 to 7.00.
On to `CC(C)[C@H](NC(=O)N[C@H](C(=O)N1C[C@H]2[C@@H]([C@H]1C(=O)NC(CC(F)F)C(=O)NCCc1ccccc1)C2(C)C)C(C)(C)C)C(=O)OC(C)(C)C` (stereo partly drawn) [Example 140], for which the negative logarithm of the Ki (pKi) was 6.30 to 7.00.
On the same count and under the same terms, the value for `CC(C)[C@H](NC(=O)N[C@H](C(=O)N1C[C@H]2[C@@H]([C@H]1C(=O)N[C@@H](CC(F)F)C(=O)NCCc1ccc(C(=O)N(C)C)cc1)C2(C)C)C(C)(C)C)C(=O)OC(C)(C)C` [Example 141] was 6.30 to 7.00; that for `COC[C@@H](NC(=O)N[C@H](C(=O)N1C[C@H]2[C@@H]([C@H]1C(=O)N[C@@H](CC(F)F)C(=O)NCCc1ccc(C(=O)OC)cc1)C2(C)C)C(C)(C)C)C(C)(C)C` [Example 142] was 6.30 to 7.00.
Same read-out and setting: the value for `COC(=O)c1ccc(CCNC(=O)[C@H](CC(F)F)NC(=O)[C@@H]2[C@@H]3[C@H](CN2C(=O)[C@@H](NC(=O)N[C@H](C(=O)OCC2CC2)C(C)(C)C)C(C)(C)C)C3(C)C)cc1` [Example 143] was 6.30 to 7.00; that for `CC(C)[C@H](NC(=O)N[C@H](C(=O)N1C[C@H]2[C@@H]([C@H]1C(=O)N[C@@H](CC(F)F)C(=O)NCCc1ccc(C(N)=O)cc1)C2(C)C)C(C)(C)C)C(N)=O` [Example 144] was 6.30 to 7.00; that for `CC1(NC(=O)N[C@H](C(=O)N2C[C@H]3[C@@H]([C@H]2C(=O)NC(CC(F)F)C(=O)NCCc2ccccc2)C3(C)C)C(C)(C)C)CCCCC1` (stereo partly drawn) [Example 145] was < 6.30.
Take `CC(C)[C@H](NC(=O)N[C@H](C(=O)N1C[C@H]2[C@@H]([C@H]1C(=O)NC(CC(F)F)C(=O)NCCc1ccc(C(=O)O)cc1)C2(C)C)C(C)(C)C)C(=O)O` (stereo partly drawn) [Example 146]: the pKi is < 6.30.
For the molecule `CC(C)[C@H](NC(=O)N[C@H](C(=O)N1C[C@H]2[C@@H]([C@H]1C(=O)NC(CC(F)F)C(=O)NCCc1ccccc1Cl)C2(C)C)C(C)(C)C)C(=O)OC(C)(C)C` (stereo partly drawn) [Example 147], the negative logarithm of the Ki (pKi) is < 6.30.
Same read-out and setting: the figure for `COC(=O)c1ccc(CCNC(=O)[C@H](CC(F)F)NC(=O)[C@@H]2[C@@H]3[C@H](CN2C(=O)[C@@H](NC(=O)OC(C)(C)C)C(C)(C)C)C3(C)C)cc1` [Example 148] is < 6.30; for `COC(=O)c1ccc(CCNC(=O)C(CC(F)F)NC(=O)[C@@H]2[C@@H]3[C@H](CN2C(=O)[C@@H](NC(=O)N[C@H](C(=O)OC(C)(C)C)C(C)C)C(C)(C)C)C3(C)C)cc1` (stereo partly drawn) [Example 149] it is < 6.30.
`CC(C)[C@H](NC(=O)N[C@H](C(=O)N1C[C@@H]2OC(C)(C)C[C@@H]2[C@H]1C(=O)N[C@@H](CC(F)F)C(=O)NCCc1ccc(C(=O)O)cc1)C1CCCCC1)C(=O)OC(C)(C)C` [Example 150]: the pKi is < 6.30.
For the molecule `CC(C)(C)OC(=O)N[C@H](C(=O)N1C[C@H]2[C@@H]([C@H]1C(=O)NC(CC(F)F)C(=O)NCCc1ccccc1)C2(C)C)C(C)(C)C` (stereo partly drawn) [Example 151], the pKi was < 6.30.
The same measure, in the same setting: the value for `CC(C)[C@H](NC(=O)N[C@H](C(=O)N1C[C@@H]2OC(C)(C)C[C@@H]2[C@H]1C(=O)N[C@@H](CC(F)F)C(=O)NCCc1ccccc1)C1CCCCC1)C(=O)OC(C)(C)C` [Example 152] was < 6.30; that for `CC(C)[C@H](NC(=O)N[C@H](C(=O)N1C[C@H]2[C@@H]([C@H]1C(=O)N[C@@H](CC(F)F)C(=O)O)C2(C)C)C(C)(C)C)C(=O)OC(C)(C)C` [Example 153] was < 6.30.
Still for that read-out and setting: the figure for `COC(=O)c1ccc(CCNC(=O)[C@H](CC(F)F)NC(=O)[C@@H]2[C@H]3CC(C)(C)O[C@H]3CN2C(=O)[C@@H](NC(=O)N[C@H](C(=O)OC(C)(C)C)C(C)C)C2CCCCC2)cc1` [Example 154] is < 6.30; for `CC1(NC(=O)N[C@H](C(=O)N2C[C@H]3[C@@H]([C@H]2C(=O)N[C@@H](CC(F)F)C(=O)NCCC(=O)OC(C)(C)C)C3(C)C)C(C)(C)C)CCCCC1` [Example 155] it is < 6.30; for `CC1(NC(=O)N[C@H](C(=O)N2C[C@H]3[C@@H]([C@H]2C(=O)NC(CC(F)F)C(=O)O)C3(C)C)C(C)(C)C)CCCCC1` (stereo partly drawn) [Example 156] it is < 6.30.
On the same count and under the same terms, the figure for `CC(C)[C@H](NC(=O)N[C@H](C(=O)N1C[C@H]2[C@@H]([C@H]1C(=O)N[C@@H](CC(F)F)C(N)=O)C2(C)C)C(C)(C)C)C(=O)O` [Example 157] is < 6.30; for `CC1(C)C[C@H]2[C@H](CN(C(=O)[C@@H](NC(=O)OCc3ccccc3)C3CCCCC3)[C@@H]2C(=O)N[C@@H](CC(F)F)C(=O)NCCc2ccccc2)O1` [Example 158] it is < 6.30.
As to `CC(C)[C@H](NC(=O)N[C@H](C(=O)N1C[C@H]2[C@@H]([C@H]1C(=O)NC(CC(F)F)C(=O)O)C2(C)C)C(C)(C)C)C(=O)OC(C)(C)C` (stereo partly drawn) [Example 159], the negative-log Ki (pKi) was < 6.30.
With `CC(C)[C@H](NC(=O)N[C@H](C(=O)N1C[C@H]2[C@@H]([C@H]1C(=O)N[C@@H](CC(F)F)C(=O)NCCC(=O)O)C2(C)C)C(C)(C)C)C(=O)O` [Example 160], the negative logarithm of the Ki (pKi) is < 6.30.
For the molecule `CC1(C)C[C@H]2[C@H](CN(C(=O)[C@@H](NC(=O)OCc3ccccc3)C3CCCCC3)[C@@H]2C(=O)N[C@@H](CC(F)F)C(=O)O)O1` [Example 161], the pKi is < 6.30.
Regarding `CC(C)(C)OC(=O)CCNC(=O)[C@H](CC(F)F)NC(=O)[C@@H]1[C@@H]2[C@H](CN1C(=O)[C@@H](NC(=O)OC(C)(C)C)C(C)(C)C)C2(C)C` [Example 162], the negative-log Ki (pKi) is < 6.30.
Consider `CCOC(=O)CCNC(=O)[C@H](CC(F)F)NC(=O)[C@@H]1[C@@H]2[C@H](CN1C(=O)[C@@H](NC(=O)OC(C)(C)C)C(C)(C)C)C2(C)C` [Example 163], for which the pKi is < 6.30.
The same measure, in the same setting: the value for `CC(C)[C@H](NC(=O)N[C@H](C(=O)N1C[C@H]2[C@@H]([C@H]1C(=O)N[C@@H](CC(F)F)C(N)=O)C2(C)C)C(C)(C)C)C(=O)OC(C)(C)C` [Example 164] was < 6.30.
Take `CC1(NC(=O)N[C@H](C(=O)N2C[C@H]3[C@@H]([C@H]2C(=O)N[C@@H](CC(F)F)C(=O)NCCC(=O)O)C3(C)C)C(C)(C)C)CCCCC1` [Example 165]: the negative-log Ki (pKi) is < 6.30.
The same measure, in the same setting: the figure for `CN(C)C(=O)[C@@H](NC(=O)CNC(=O)[C@H](CC(F)F)NC(=O)[C@@H]1[C@@H]2[C@H](CN1C(=O)[C@@H](NC(=O)NC(C)(C)C)C(C)(C)C)C2(C)C)c1ccccc1` [Example 166] ({NHtBu-CO}-[Tle][Pro(3R,4S-CMe2)][Abu(4,4-F2)]G[Phg]-NMe2) is < 6.30; for `CC(C)(C)OC(=O)N[C@H](C(=O)N1C[C@H]2[C@@H]([C@H]1C(=O)NC(CC(F)F)C(=O)O)C2(C)C)C(C)(C)C` (stereo partly drawn) [Example 167] it is < 6.30.
Still for that read-out and setting: the value for `CN(C)C(=O)[C@@H](NC(=O)CCNC(=O)[C@H](CC(F)F)NC(=O)[C@@H]1[C@@H]2[C@H](CN1C(=O)[C@@H](NC(=O)OC(C)(C)C)C(C)(C)C)C2(C)C)c1ccccc1` [Example 168] (Boc-[Tle][Pro(3R,4S-CMe2)][Abu(4,4-F2)][βAla][Phg]-NMe2) was < 6.30; that for `CC(C)(C)OC(=O)N[C@H](C(=O)N1C[C@H]2[C@@H]([C@H]1C(=O)N[C@@H](CC(F)F)C(=O)NCCC(=O)O)C2(C)C)C(C)(C)C` [Example 169] was < 6.30.

Staying with this assay, now noted: read-out: Ki Rating; Table 2; single chain NS4A21-32-GSGS-NS3 3-181 protease, 30° C., pH 6.5.
As to `COC(=O)c1ccc(CCNC(=O)[C@H](CC(F)F)NC(=O)[C@@H]2[C@@H]3[C@H](CN2C(=O)[C@@H](NC(=O)N[C@H](C(=O)OC(C)(C)C)C(C)C)C(C)(C)C)C3(C)C)cc1` [Example 137], the pKi was 6.30 to 7.00.

By pKi is commonly meant the negative decadic logarithm of the Ki, by convention in mol/L.

The record behind these values is patent US7449447B2, “Peptidomimetic NS3-serine protease inhibitors of hepatitis C virus” (priority 2003, dated 2008).
